# Assay results as given in patent US20230097009A1, “USE OF COMPOUND IN PREVENTION AND/OR TREATMENT OF PATHOGEN INFECTION IN ANIMALS” (FELICAMED BIOTECHNOLOGY CO., LTD., priority 2020, published 2023).
# Columns and labels:
# feline coronavirus = assay: Treatment of a cat with recurrent wet FIP (Example 1): daily clinical observation, body weight, chest X-ray; assay type: in vivo; details: for body weight: 2.5 kg at enrollment (D0)
# Protocol: A female British shorthair cat (Lele) of 2.5 kg, aged 8 month, unneutered. The cat had symptoms of increased body temperature, mental depression, decreased appetite, and increased abdominal girth in January, 2020. After 1 week, the cat was admitted. On January 18, the cat was diagnosed with feline infectious peritonitis (FIP) positive. After being treated with GS-441524 for 3 days, the cat was then administered with furosemide, Synulox®, prednisolone and itraconazole (P.O., q24h, 10 mg/kg) for 1 month. The drugs were discontinued after ascites regressed. Early in April, the disease recurred, showing decreased food intake and listlessness. […] The cat was enrolled on April 8, and was treated with the drug of the present invention at 2.0 mg/kg (SC, q24h) on days 1-14 (D1-14). Proper supportive treatments were given at the same time, including adjuvant treatment such as Moringa (a hepatoprotective drug), Lysinphirst (lysine) and Doctor Dolittle® (lactoferrin).
# The pharmaceutically active compound described above is a pure powder have the following structure. The compound was added to a 0.9% normal saline (50 mL of endotoxin-free water and 0.45 g of NaCl), and the mixture was uniformly mixed and filtered through a filter membrane to give a clarified solution. The diluted compound was stored in a plastic-sealed sterile vial, stored in a refrigerator at 4° C., slowly heated to room temperature before injection, and administered using a disposable syringe. The injection ranged across the back, starting from 2 cm posterior to the scapula to the middle of the lumbar spine, half of the distance of the adjacent chest to flank.
# The treatment was given by injection in the morning every day. […]
# The hydrothorax completely regressed since about 7 days after the treatment. The body weight increased by 9% during and after the treatment.
# [1] = test system: feline infectious peritonitis virus; assay: Clinical survival of cats with clinically confirmed FIP, treatment group vs control group (Example 2); assay type: in vivo, cat; details: 7 treated vs 8 control cats with FIP; GS-441524 pre-treatment 3 days; 2.0 mg/kg SC q24h D1-D14; death or neurological symptoms = clinical death; 14 days
# Source text: A total of 15 cats with clinically confirmed FIP were enrolled, with hydrothorax/ascites, positive CT value by PCR, and no neurological symptoms. 8 cats were allocated into the control group, and 7 cats were allocated into the treatment group.
# The groups were pre-treated with GS-441524 for 3 days. For the control group, necessary supportive treatment was given on D1—D14.
# The occurrence of death or neurological symptoms was judged as clinical death, and the clinical survival curve was plotted after 14 days.
# The Log Rank (Mantel-Cox) and Breslow (Generalized Wilcoxon) methods were used for validity test, and both methods indicated a significant difference (P<0.05). The above description is only for the purpose of illustrating the preferred example of the present invention, and is not intended to limit the scope of the present invention. Any modifications, equivalents and the like made without departing from the spirit and principle of the present invention should be included in the protection scope of the present invention.
# [2] = D1, cat with FIP, 2.0 mg/kg SC q24h
# [3] = D2, cat with FIP, 2.0 mg/kg SC q24h
# [4] = D3, cat with FIP, 2.0 mg/kg SC q24h
# [5] = D4, cat with FIP, 2.0 mg/kg SC q24h
# [6] = D5, cat with FIP, 2.0 mg/kg SC q24h
# [7] = D6, cat with FIP, 2.0 mg/kg SC q24h
# [8] = D7, cat with FIP, 2.0 mg/kg SC q24h
# [9] = D8, cat with FIP, 2.0 mg/kg SC q24h
# [10] = D9, cat with FIP, 2.0 mg/kg SC q24h
# [11] = D10, cat with FIP, 2.0 mg/kg SC q24h
# [12] = D11, cat with FIP, 2.0 mg/kg SC q24h
# [13] = D12, cat with FIP, 2.0 mg/kg SC q24h
# [14] = D13, cat with FIP, 2.0 mg/kg SC q24h
# [15] = D14, cat with FIP, 2.0 mg/kg SC q24h
structure (smiles),measurement,setting,value
"CN1CCC(c2ncc(-c3cnc(N)c(OCc4cccc(C#CC(C)(C)O)c4)c3)s2)CC1 [the drug of the present invention, 4-(3-(((2-amino-5-(2-(1-methylpiperidin-4-yl)thiazol-5-yl)pyridin-3-yl)oxy)methyl)phenyl)-2-methylbut-3-yn-2-ol]",Body temperature Afternoon,feline coronavirus; [2],38.6 °C
same,Defecation condition,feline coronavirus; [2],Normal
same,Respiratory state,feline coronavirus; [2],Normal
same,Body temperature Afternoon,feline coronavirus; [3],38.1 °C
same,Defecation condition,feline coronavirus; [3],Normal
same,Respiratory state,feline coronavirus; [3],Normal
same,Food intake,"feline coronavirus; D2, cat with FIP, 2.0 mg/kg SC q24h, D0 Decreased intake - 3",Improved - 4
same,Mental state,"feline coronavirus; D2, cat with FIP, 2.0 mg/kg SC q24h, D0 Listless - 3",Improved - 4
same,Body temperature Afternoon,feline coronavirus; [4],38 °C
same,Defecation condition,feline coronavirus; [4],Normal
same,Respiratory state,feline coronavirus; [4],Normal
same,Food intake,"feline coronavirus; D3, cat with FIP, 2.0 mg/kg SC q24h, D0 Decreased intake - 3",Good - 5
same,Mental state,"feline coronavirus; D3, cat with FIP, 2.0 mg/kg SC q24h, D0 Listless - 3",Good - 5
same,Body temperature Afternoon,feline coronavirus; [5],38.3 °C
same,Defecation condition,feline coronavirus; [5],Normal
same,Food intake,feline coronavirus; [5],Good
same,Mental state,feline coronavirus; [5],Good
same,Respiratory state,feline coronavirus; [5],Normal
same,Body temperature Afternoon,feline coronavirus; [6],38.3 °C
same,Defecation condition,feline coronavirus; [6],Normal
same,Food intake,feline coronavirus; [6],Good
same,Mental state,feline coronavirus; [6],Good
same,Respiratory state,feline coronavirus; [6],Normal
same,Body temperature Afternoon,feline coronavirus; [7],38.3 °C
same,Defecation condition,feline coronavirus; [7],Normal
same,Food intake,feline coronavirus; [7],Good
same,Mental state,feline coronavirus; [7],Good
same,Respiratory state,feline coronavirus; [7],Normal
same,Body temperature Afternoon,feline coronavirus; [8],38.1 °C
same,Defecation condition,feline coronavirus; [8],Normal
same,Food intake,feline coronavirus; [8],Good
same,Mental state,feline coronavirus; [8],Good
same,Respiratory state,feline coronavirus; [8],Normal
same,body weight,feline coronavirus; [8],2.75 kg
same,Body temperature Afternoon,feline coronavirus; [9],38 °C
same,Defecation condition,feline coronavirus; [9],Normal
same,Food intake,feline coronavirus; [9],Good
same,Mental state,feline coronavirus; [9],Good
same,Respiratory state,feline coronavirus; [9],Normal
same,Body temperature Afternoon,feline coronavirus; [10],38.2 °C
same,Defecation condition,feline coronavirus; [10],Normal
same,Food intake,feline coronavirus; [10],Good
same,Mental state,feline coronavirus; [10],Good
same,Respiratory state,feline coronavirus; [10],Normal
same,Body temperature Afternoon,feline coronavirus; [11],38.3 °C
same,Defecation condition,feline coronavirus; [11],Normal
same,Food intake,feline coronavirus; [11],Good
same,Mental state,feline coronavirus; [11],Good
same,Respiratory state,feline coronavirus; [11],Normal
same,Body temperature Afternoon,feline coronavirus; [12],38.4 °C
same,Defecation condition,feline coronavirus; [12],Normal
same,Food intake,feline coronavirus; [12],Good
same,Mental state,feline coronavirus; [12],Good
same,Respiratory state,feline coronavirus; [12],Normal
same,Body temperature Afternoon,feline coronavirus; [13],38.5 °C
same,Defecation condition,feline coronavirus; [13],Normal
same,Food intake,feline coronavirus; [13],Good
same,Mental state,feline coronavirus; [13],Good
same,Respiratory state,feline coronavirus; [13],Normal
same,Body temperature Afternoon,feline coronavirus; [14],38.5 °C
same,Body temperature Morning,feline coronavirus; [14],38.9 °C
same,Defecation condition,feline coronavirus; [14],Normal
same,Food intake,feline coronavirus; [14],Good
same,Mental state,feline coronavirus; [14],Good
same,Respiratory state,feline coronavirus; [14],Normal
same,Body temperature Afternoon,feline coronavirus; [15],38.4 °C
same,Body temperature Morning,feline coronavirus; [15],38.4 °C
same,Defecation condition,feline coronavirus; [15],Normal
same,Food intake,feline coronavirus; [15],Good
same,Mental state,feline coronavirus; [15],Good
same,Respiratory state,feline coronavirus; [15],Normal
same,body weight,feline coronavirus; [15],2.75 kg
same,"clinical response (appetite, mental state, weight)","feline coronavirus; after 2 weeks of treatment, cat with FIP, 2.0 mg/kg SC q24h",remarkable clinical response
same,body weight increase during and after the treatment,"feline coronavirus; cat with FIP, 2.0 mg/kg SC q24h D1-14",9%
same,body temperature maintained throughout the treatment,"feline coronavirus; cat with FIP, no fever at enrollment, 2.0 mg/kg SC q24h D1-14",38-38.5 °C
same,time after which the hydrothorax completely regressed,"feline coronavirus; cat with wet FIP (chest), 2.0 mg/kg SC q24h, chest X-ray",about 7 days
same,"clinical survival vs control group, P (Log Rank (Mantel-Cox) and Breslow (Generalized Wilcoxon))",[1],< 0.05
